These compounds were tested against T1, human TRPV4 (Homo sapiens, UniProt Q9HBA0) (assay: FLIPR assay for hTRPV4 expressed in BHK cells: inhibition of Agonist Compound-induced calcium signal). Conditions: hTRPV4 in BHK/AC9 cells, FLIPR calcium signal, agonist at EC80; reported as range class; read-out: IC50.
T1 construct: expressed in transfected cells; host or cells: BHK/AC9 cells transduced with BacMam virus
Type: cell-based
How it was run: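 BHK/AC9 cells transduced with BacMam human TRPV4 (MOI 78), plated 15,000 per well and cultured 24 h at 37° C. Loaded with 2 μM Fluo-4 AM plus 500 μM Brilliant Black in HBSS for 1-1.5 h at room temperature in the dark; intracellular calcium signal read by FLIPR fluorescence.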

T1 sequence (Q9HBA0 whole entry): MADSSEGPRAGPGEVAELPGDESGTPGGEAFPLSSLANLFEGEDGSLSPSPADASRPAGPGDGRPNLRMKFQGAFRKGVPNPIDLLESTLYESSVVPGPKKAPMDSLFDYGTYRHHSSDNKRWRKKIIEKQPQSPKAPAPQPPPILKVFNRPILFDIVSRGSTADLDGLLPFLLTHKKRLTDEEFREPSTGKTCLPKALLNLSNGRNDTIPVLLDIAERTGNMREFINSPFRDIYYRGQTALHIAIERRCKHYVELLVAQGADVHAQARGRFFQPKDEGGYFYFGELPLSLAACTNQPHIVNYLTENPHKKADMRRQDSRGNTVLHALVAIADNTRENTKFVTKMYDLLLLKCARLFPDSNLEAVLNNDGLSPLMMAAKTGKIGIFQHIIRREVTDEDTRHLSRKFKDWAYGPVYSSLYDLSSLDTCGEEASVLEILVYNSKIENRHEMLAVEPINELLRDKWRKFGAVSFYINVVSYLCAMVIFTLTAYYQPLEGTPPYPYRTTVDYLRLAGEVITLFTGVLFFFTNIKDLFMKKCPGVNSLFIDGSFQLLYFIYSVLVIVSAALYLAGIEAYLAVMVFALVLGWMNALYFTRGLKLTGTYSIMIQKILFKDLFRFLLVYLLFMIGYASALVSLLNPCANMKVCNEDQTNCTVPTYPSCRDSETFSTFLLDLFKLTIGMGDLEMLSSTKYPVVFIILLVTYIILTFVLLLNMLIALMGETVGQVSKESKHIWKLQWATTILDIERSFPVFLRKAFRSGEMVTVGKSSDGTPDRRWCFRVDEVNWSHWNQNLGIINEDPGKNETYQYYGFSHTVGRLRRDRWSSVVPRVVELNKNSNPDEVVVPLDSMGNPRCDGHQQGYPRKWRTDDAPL

Row | Structure (SMILES) | IC50
1 | N#Cc1cc(Cl)ccc1S(=O)(=O)N1C[C@H](Oc2ccc(C(F)(F)F)cc2)[C@@](O)(CO)C1 [Example 152, 5-chloro-2-(((3S,4S)-3-hydroxy-3-(hydroxymethyl)-4-(4-(trifluoromethyl)phenoxy)pyrrolidin-1-yl)sulfonyl)benzonitrile] | 0.1 to 10 nM
2 | N#Cc1cc(F)ccc1S(=O)(=O)N1C[C@H](Oc2ccc(C(F)(F)F)cc2)[C@](O)(CO)C1 [Example 153, 5-fluoro-2-(((3R,4S)-3-hydroxy-3-(hydroxymethyl)-4-(4-(trifluoromethyl)phenoxy)pyrrolidin-1-yl)sulfonyl)benzonitrile] | 0.1 to 10 nM
3 | N#Cc1cc(Cl)ccc1S(=O)(=O)N1C[C@H](Oc2ccc(Cl)cc2)[C@](O)(CO)C1 [Example 154, 5-chloro-2-(((3R,4S)-4-(4-chlorophenoxy)-3-hydroxy-3-(hydroxymethyl)pyrrolidin-1-yl)sulfonyl)benzonitrile] | 0.1 to 10 nM
4 | N#Cc1cc(F)ccc1S(=O)(=O)N1C[C@H](Oc2ccc(Cl)cc2)[C@](O)(CO)C1 [Example 155, 2-(((3R,4S)-4-(4-chlorophenoxy)-3-hydroxy-3-(hydroxymethyl)pyrrolidin-1-yl)sulfonyl)-5-fluorobenzonitrile] | 0.1 to 10 nM
5 | N#Cc1cc(Cl)ccc1S(=O)(=O)N1C[C@H](Oc2ccc(C(F)(F)F)cc2)[C@](O)(CO)C1 [Example 156, 5-chloro-2-(((3R,4S)-3-hydroxy-3-(hydroxymethyl)-4-(4-(trifluoromethyl)phenoxy)pyrrolidin-1-yl)sulfonyl)benzonitrile] | 0.1 to 10 nM
6 | N#Cc1cc(OCC(F)(F)F)c(O[C@H]2CN(S(=O)(=O)c3ccc(C(F)(F)F)cc3C#N)C[C@@]2(O)CO)cc1F [Example 157, 4-(((3S,4R)-1-((2-cyano-4-(trifluoromethyl)phenyl)sulfonyl)-4-hydroxy-4-(hydroxymethyl)pyrrolidin-3-yl)oxy)-2-fluoro-5-(2,2,2-trifluoroethoxy)benzonitrile] | 0.1 to 10 nM
7 | COc1cc(C#N)c(F)cc1O[C@H]1CN(S(=O)(=O)c2ccc(C(F)(F)F)cc2C#N)C[C@@]1(O)CO [Example 158, 4-(((3S,4R)-1-((2-cyano-4-(trifluoromethyl)phenyl)sulfonyl)-4-hydroxy-4-(hydroxymethyl)pyrrolidin-3-yl)oxy)-2-fluoro-5-methoxybenzonitrile] | 0.1 to 10 nM
8 | CCOc1cc(C#N)c(F)cc1O[C@H]1CN(S(=O)(=O)c2ccc(C(F)(F)F)cc2C#N)C[C@@]1(O)CO [Example 159, 4-(((3S,4R)-1-((2-cyano-4-(trifluoromethyl)phenyl)sulfonyl)-4-hydroxy-4-(hydroxymethyl)pyrrolidin-3-yl)oxy)-5-ethoxy-2-fluorobenzonitrile] | 0.1 to 10 nM
9 | CCCOc1cc(C#N)c(F)cc1O[C@H]1CN(S(=O)(=O)c2ccc(C(F)(F)F)cc2C#N)C[C@@]1(O)CO [Example 160, 4-(((3S,4R)-1-((2-cyano-4-(trifluoromethyl)phenyl)sulfonyl)-4-hydroxy-4-(hydroxymethyl)pyrrolidin-3-yl)oxy)-2-fluoro-5-propoxybenzonitrile] | 0.1 to 10 nM
10 | CC(C)Oc1cc(C#N)c(F)cc1O[C@H]1CN(S(=O)(=O)c2ccc(C(F)(F)F)cc2C#N)C[C@@]1(O)CO [Example 161, 4-(((3S,4R)-1-((2-cyano-4-(trifluoromethyl)phenyl)sulfonyl)-4-hydroxy-4-(hydroxymethyl)pyrrolidin-3-yl)oxy)-2-fluoro-5-isopropoxybenzonitrile] | 0.1 to 10 nM
11 | N#Cc1cc(O)c(O[C@H]2CN(S(=O)(=O)c3ccc(C(F)(F)F)cc3C#N)C[C@@]2(O)CO)cc1F [Example 162, 4-(((3S,4R)-1-((2-cyano-4-(trifluoromethyl)phenyl)sulfonyl)-4-hydroxy-4-(hydroxymethyl)pyrrolidin-3-yl)oxy)-2-fluoro-5-hydroxybenzonitrile] | 0.1 to 10 nM
12 | N#Cc1cc(OCc2ccccc2)c(O[C@H]2CN(S(=O)(=O)c3ccc(C(F)(F)F)cc3C#N)C[C@@]2(O)CO)cc1F [Example 163, 5-(benzyloxy)-4-(((3S,4R)-1-((2-cyano-4-(trifluoromethyl)phenyl)sulfonyl)-4-hydroxy-4-(hydroxymethyl)pyrrolidin-3-yl)oxy)-2-fluorobenzonitrile] | 0.1 to 10 nM
13 | CCCCOc1cc(C#N)c(F)cc1O[C@H]1CN(S(=O)(=O)c2ccc(C(F)(F)F)cc2C#N)C[C@@]1(O)CO [Example 164, 5-butoxy-4-(((3S,4R)-1-((2-cyano-4-(trifluoromethyl)phenyl)sulfonyl)-4-hydroxy-4-(hydroxymethyl)pyrrolidin-3-yl)oxy)-2-fluorobenzonitrile] | 0.1 to 10 nM
14 | CC(C)COc1cc(C#N)c(F)cc1O[C@H]1CN(S(=O)(=O)c2ccc(C(F)(F)F)cc2C#N)C[C@@]1(O)CO [Example 165, 4-(((3S,4R)-1-((2-cyano-4-(trifluoromethyl)phenyl)sulfonyl)-4-hydroxy-4-(hydroxymethyl)pyrrolidin-3-yl)oxy)-2-fluoro-5-isobutoxybenzonitrile] | 0.1 to 10 nM
15 | CCCOc1cc(C#N)ccc1O[C@H]1CN(S(=O)(=O)c2ccc(C(F)(F)F)cc2C#N)C[C@@]1(O)CO [Example 166, 2-(((3R,4S)-4-(4-cyano-2-propoxyphenoxy)-3-hydroxy-3-(hydroxymethyl)pyrrolidin-1-yl)sulfonyl)-5-(trifluoromethyl)benzonitrile] | 0.1 to 10 nM
16 | N#Cc1ccc(O[C@H]2CN(S(=O)(=O)c3ccc(C(F)(F)F)cc3C#N)C[C@@]2(O)CO)c(OCC(F)(F)F)c1 [Example 167, 2-(((3R,4S)-4-(4-cyano-2-(2,2,2-trifluoroethoxy)phenoxy)-3-hydroxy-3-(hydroxymethyl)pyrrolidin-1-yl)sulfonyl)-5-(trifluoromethyl)benzonitrile] | 0.1 to 10 nM
17 | N#Cc1ccc(O[C@H]2CN(S(=O)(=O)c3ccc(C(F)(F)F)cc3C#N)C[C@@]2(O)CO)c(O)c1 [Example 168, 2-(((3R,4S)-4-(4-cyano-2-hydroxyphenoxy)-3-hydroxy-3-(hydroxymethyl)pyrrolidin-1-yl)sulfonyl)-5-(trifluoromethyl)benzonitrile] | 10 to 100 nM
18 | CCCCOc1cc(C#N)ccc1O[C@H]1CN(S(=O)(=O)c2ccc(C(F)(F)F)cc2C#N)C[C@@]1(O)CO [Example 169, 2-(((3R,4S)-4-(2-butoxy-4-cyanophenoxy)-3-hydroxy-3-(hydroxymethyl)pyrrolidin-1-yl)sulfonyl)-5-(trifluoromethyl)benzonitrile] | 0.1 to 10 nM
19 | CC(C)COc1cc(C#N)ccc1O[C@H]1CN(S(=O)(=O)c2ccc(C(F)(F)F)cc2C#N)C[C@@]1(O)CO [Example 170, 2-(((3R,4S)-4-(4-cyano-2-isobutoxyphenoxy)-3-hydroxy-3-(hydroxymethyl)pyrrolidin-1-yl)sulfonyl)-5-(trifluoromethyl)benzonitrile] | 0.1 to 10 nM
20 | N#Cc1ccc(O[C@H]2CN(S(=O)(=O)c3ccc(C(F)(F)F)cc3C#N)C[C@@]2(O)CO)c(OCc2ccccc2)c1 [Example 171, 2-(((3R,4S)-4-(2-(benzyloxy)-4-cyanophenoxy)-3-hydroxy-3-(hydroxymethyl)pyrrolidin-1-yl)sulfonyl)-5-(trifluoromethyl)benzonitrile] | 0.1 to 10 nM
21 | N#Cc1ccc(S(=O)(=O)N2C[C@H](Oc3ccc(C#N)cc3OCC(F)(F)F)[C@](O)(CO)C2)cc1 [Example 172, 4-(((3S,4R)-1-((4-cyanophenyl)sulfonyl)-4-hydroxy-4-(hydroxymethyl)pyrrolidin-3-yl)oxy)-3-(2,2,2-trifluoroethoxy)benzonitrile] | 10 to 100 nM

Reference: patent US11229623B2 (GlaxoSmithKline Intellectual Property (No.2) Limited, priority 2016, dated 2022)
